# Data reported in US20260199316A1, “SOLID DISPERSION, PREPARATION METHOD THEREFOR, AND USE THEREOF” (HANGZHOU GLUBIO PHARMACEUTICAL CO., LTD, priority 2022, published 2026).
# Experiments:
# Type in all cases: physicochemical
# [1] = One-week solid stability study of solid dispersions
# Procedure: According to Table 6, three solid dispersions, namely, formulation of API+Soluplus, formulation of API+PVP VA64, and formulation of API+HPC SSL, were stored at 25° C./60% RH (open) and 40° C./75% RH (open) for one week, the appearance of the sample was visually observed and the purity of the samples was analyzed by HPLC.
# Therefore, the storage of solid dispersions should avoid exposure to high temperature and high humidity conditions to prevent chemical degradation.
# [2] = Four-week solid stability study of API+HPC SSL solid dispersions
# Procedure: All solid dispersions with formulation of API+HPC SSL were stored at 25° C./60% RH (open) and 40° C./75% RH (sealed). After one week and four weeks (1 w and 4 w), the sample appearance was visually observed, the crystal form change was tested by XRPD, and the sample purity was analyzed by HPLC. The results are shown in Tables 11 to 12 and FIGS. 37 to 38.
# [3] = Solubility of rapid solvent evaporation products in FaSSIF
# Procedure: About 10 mg of the API control of the compound of formula A and 40 mg of the polymer carrier were transferred to 1 mL of DCM:EtOH=9:1 (v/v) to prepare a solution with 20% drug loading. The resulting clear solution was rapidly evaporated at 80° C. until there was no liquid to prepare a solid dispersion. The API control of the compound of formula A was also treated separately in the same manner.
compound,measurement,setting,value
"O=C1CC[C@H](N2Cc3cc(C(=O)N[C@H](c4ccc(Cl)cn4)C4CCC4)ccc3C2=O)C(=O)N1 [API control, N—((S)-(5-chloropyridin-2-yl)(cyclobutyl)methyl)-2-((S)-2,6-dioxopiperidin-3-yl)-1-oxoisoindoline-5-carboxamide]",Appearance,"[1]; 25° C./60% RH open, one week",White powder
same,Contents,"[1]; 25° C./60% RH open, one week",97.26%
same,Impurities,"[1]; 25° C./60% RH open, one week",0.72%
same,RRT 0.54,"[1]; 25° C./60% RH open, one week",0.10%
same,RRT 0.92,"[1]; 25° C./60% RH open, one week",<LOQ
same,RRT 0.93,"[1]; 25° C./60% RH open, one week",0.10%
same,RRT 0.95,"[1]; 25° C./60% RH open, one week",0.09%
same,RRT 0.96,"[1]; 25° C./60% RH open, one week",0.10%
same,RRT 1.00,"[1]; 25° C./60% RH open, one week",99.29%
same,RRT 1.11,"[1]; 25° C./60% RH open, one week",0.09%
same,RRT 1.18,"[1]; 25° C./60% RH open, one week",0.17%
same,RRT 1.24,"[1]; 25° C./60% RH open, one week",0.06%
same,Appearance,"[1]; 40° C./75% RH open, one week",Slight agglomeration
same,Contents,"[1]; 40° C./75% RH open, one week",96.79%
same,Impurities,"[1]; 40° C./75% RH open, one week",1.05%
same,RRT 0.54,"[1]; 40° C./75% RH open, one week",0.13%
same,RRT 0.92,"[1]; 40° C./75% RH open, one week",0.12%
same,RRT 0.93,"[1]; 40° C./75% RH open, one week",0.26%
same,RRT 0.95,"[1]; 40° C./75% RH open, one week",0.09%
same,RRT 0.96,"[1]; 40° C./75% RH open, one week",0.13%
same,RRT 1.00,"[1]; 40° C./75% RH open, one week",98.95%
same,RRT 1.11,"[1]; 40° C./75% RH open, one week",0.11%
same,RRT 1.18,"[1]; 40° C./75% RH open, one week",0.14%
same,RRT 1.24,"[1]; 40° C./75% RH open, one week",0.06%
same,Appearance,[1]; Initial,White powder
same,Impurities,[1]; Initial,0.67%
same,RRT 0.54,[1]; Initial,0.11%
same,RRT 0.92,[1]; Initial,<LOQ
same,RRT 0.93,[1]; Initial,0.09%
same,RRT 0.95,[1]; Initial,0.09%
same,RRT 0.96,[1]; Initial,0.10%
same,RRT 1.00,[1]; Initial,99.34%
same,RRT 1.11,[1]; Initial,0.07%
same,RRT 1.18,[1]; Initial,0.15%
same,RRT 1.24,[1]; Initial,0.05%
same,Contents,"[2]; 25° C./60% RH open, 1 w",96.84%
same,Impurities,"[2]; 25° C./60% RH open, 1 w",0.81%
same,RRT 0.92,"[2]; 25° C./60% RH open, 1 w",0.05%
same,RRT 0.93,"[2]; 25° C./60% RH open, 1 w",0.10%
same,RRT 0.95,"[2]; 25° C./60% RH open, 1 w",0.09%
same,RRT 0.96,"[2]; 25° C./60% RH open, 1 w",0.14%
same,RRT 1.00,"[2]; 25° C./60% RH open, 1 w",99.20%
same,RRT 1.10,"[2]; 25° C./60% RH open, 1 w",0.32%
same,RRT 1.17,"[2]; 25° C./60% RH open, 1 w",0.10%
same,Contents,"[2]; 25° C./60% RH open, 4 w",101.1%
same,Impurities,"[2]; 25° C./60% RH open, 4 w",0.70%
same,RRT 0.92,"[2]; 25° C./60% RH open, 4 w",<LOQ
same,RRT 0.93,"[2]; 25° C./60% RH open, 4 w",0.07%
same,RRT 0.95,"[2]; 25° C./60% RH open, 4 w",0.09%
same,RRT 0.96,"[2]; 25° C./60% RH open, 4 w",0.14%
same,RRT 1.00,"[2]; 25° C./60% RH open, 4 w",99.30%
same,RRT 1.10,"[2]; 25° C./60% RH open, 4 w",0.32%
same,RRT 1.17,"[2]; 25° C./60% RH open, 4 w",0.09%
same,Contents,"[2]; 40° C./75% RH sealed, 1 w",97.46%
same,Impurities,"[2]; 40° C./75% RH sealed, 1 w",0.75%
same,RRT 0.92,"[2]; 40° C./75% RH sealed, 1 w",0.03%
same,RRT 0.93,"[2]; 40° C./75% RH sealed, 1 w",0.06%
same,RRT 0.95,"[2]; 40° C./75% RH sealed, 1 w",0.09%
same,RRT 0.96,"[2]; 40° C./75% RH sealed, 1 w",0.15%
same,RRT 1.00,"[2]; 40° C./75% RH sealed, 1 w",99.25%
same,RRT 1.10,"[2]; 40° C./75% RH sealed, 1 w",0.32%
same,RRT 1.17,"[2]; 40° C./75% RH sealed, 1 w",0.09%
same,Contents,"[2]; 40° C./75% RH sealed, 4 w",101.2%
same,Impurities,"[2]; 40° C./75% RH sealed, 4 w",0.70%
same,RRT 0.92,"[2]; 40° C./75% RH sealed, 4 w",<LOQ
same,RRT 0.93,"[2]; 40° C./75% RH sealed, 4 w",0.06%
same,RRT 0.95,"[2]; 40° C./75% RH sealed, 4 w",0.09%
same,RRT 0.96,"[2]; 40° C./75% RH sealed, 4 w",0.14%
same,RRT 1.00,"[2]; 40° C./75% RH sealed, 4 w",99.30%
same,RRT 1.10,"[2]; 40° C./75% RH sealed, 4 w",0.33%
same,RRT 1.17,"[2]; 40° C./75% RH sealed, 4 w",0.09%
same,Impurities,[2]; Initial,0.78%
same,RRT 0.92,[2]; Initial,0.05%
same,RRT 0.93,[2]; Initial,0.10%
same,RRT 0.95,[2]; Initial,0.09%
same,RRT 0.96,[2]; Initial,0.15%
same,RRT 1.00,[2]; Initial,99.22%
same,RRT 1.10,[2]; Initial,0.31%
same,RRT 1.17,[2]; Initial,0.09%
same,solubility,[3]; 0.25 h,470 µg/mL
same,solubility,[3]; 0.5 h,460 µg/mL
same,solubility,[3]; 0.75 h,490 µg/mL
same,solubility,[3]; 1 h,510 µg/mL
same,solubility,[3]; 2 h,440 µg/mL
